Laboratory results published in ChEMBL document CHEMBL1201862, “PubChem BioAssay data set” (2004).
Calls of active or inactive are those of the source.

Assays:
[1] = glucagon-like peptide-1 release potency in STC-1, concentration-response, half-maximal inhibitory concentration in the STC-1 line (AID 1117345); type: functional, cell-based
Large T antigen = Large T antigen (Simian virus 40, UniProt P03070); type: functional, Betapolyomavirus macacae;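 further: Confirmatory-stage PubChem screen for compounds that inhibit SV40 T antigen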
[2] = Potency on glucagon-like peptide 1 release, dose-response in NCI-H716 cell line, half maximal inhibitory concentration (AID 1117344); type: functional, cell-based
Cytochrome P450 2C19 = Cytochrome P450 2C19 (Homo sapiens, UniProt P33261); test: Cytochrome panel assay with activity outcomes. Panel member name: p450-cyp2c19 Compounds with AC50 equal or less than 10 uM are considered active; type: functional; settings: read-out: AC50
[3] = molecular target: Mitogen-activated protein kinase 10 (Homo sapiens, UniProt P53779); test: Dose response biochemical screening assay for inhibitors of c-Jun N-Terminal Kinase 3 (JNK3). [Related pubchem assays: 746 ]
Cytochrome P450 2C9 = Cytochrome P450 2C9 (Homo sapiens, UniProt P11712)
Sequence of Cytochrome P450 2C9 (P11712 whole entry): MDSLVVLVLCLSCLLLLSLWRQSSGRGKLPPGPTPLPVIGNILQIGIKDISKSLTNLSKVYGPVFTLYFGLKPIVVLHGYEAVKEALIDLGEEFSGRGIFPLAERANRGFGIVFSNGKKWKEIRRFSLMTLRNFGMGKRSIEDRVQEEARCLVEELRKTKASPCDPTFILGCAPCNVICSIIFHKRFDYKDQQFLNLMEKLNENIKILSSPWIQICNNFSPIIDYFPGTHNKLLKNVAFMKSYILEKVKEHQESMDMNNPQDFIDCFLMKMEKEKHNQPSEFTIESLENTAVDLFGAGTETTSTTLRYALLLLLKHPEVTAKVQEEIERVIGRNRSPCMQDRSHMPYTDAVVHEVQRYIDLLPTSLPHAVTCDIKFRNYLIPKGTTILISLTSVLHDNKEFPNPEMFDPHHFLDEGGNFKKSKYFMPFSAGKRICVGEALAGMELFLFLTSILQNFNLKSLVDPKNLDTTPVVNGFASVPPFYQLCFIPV

[4] = molecular target: 5-hydroxytryptamine receptor 1A (Homo sapiens, UniProt P08908); type: functional
[5] = molecular target: Photoreceptor-specific nuclear receptor (Homo sapiens, UniProt Q9Y5X4); test: ligands suppressing NR2E3 nuclear receptor activity – biochemical, TR-FRET, dose response (AID 463256); type: functional
[6] = molecular target: Peroxisome proliferator-activated receptor gamma/Nuclear receptor corepressor 2 (Homo sapiens, UniProt P37231+Q9Y618); test: Counterscreen for NR2E3 inverse agonists: TR-FRET-based biochemical high throughput dose response assay to identify inverse agonists of the interaction between peroxisome proliferator-activated receptor gamma (PPARg) and nuclear receptor co-repressor 2 (NCOR2).; type: functional
[7] = molecular target: Ras and Rab interactor 1/Tyrosine-protein kinase ABL1 (Homo sapiens, UniProt P00519+Q13671); type: functional;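 further: biochemical TR-FRET dose-response test measuring inhibition of binding between Rin1 and Abl proteins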
Sequence of Ras and Rab interactor 1/Tyrosine-protein kinase ABL1 (P00519 whole entry): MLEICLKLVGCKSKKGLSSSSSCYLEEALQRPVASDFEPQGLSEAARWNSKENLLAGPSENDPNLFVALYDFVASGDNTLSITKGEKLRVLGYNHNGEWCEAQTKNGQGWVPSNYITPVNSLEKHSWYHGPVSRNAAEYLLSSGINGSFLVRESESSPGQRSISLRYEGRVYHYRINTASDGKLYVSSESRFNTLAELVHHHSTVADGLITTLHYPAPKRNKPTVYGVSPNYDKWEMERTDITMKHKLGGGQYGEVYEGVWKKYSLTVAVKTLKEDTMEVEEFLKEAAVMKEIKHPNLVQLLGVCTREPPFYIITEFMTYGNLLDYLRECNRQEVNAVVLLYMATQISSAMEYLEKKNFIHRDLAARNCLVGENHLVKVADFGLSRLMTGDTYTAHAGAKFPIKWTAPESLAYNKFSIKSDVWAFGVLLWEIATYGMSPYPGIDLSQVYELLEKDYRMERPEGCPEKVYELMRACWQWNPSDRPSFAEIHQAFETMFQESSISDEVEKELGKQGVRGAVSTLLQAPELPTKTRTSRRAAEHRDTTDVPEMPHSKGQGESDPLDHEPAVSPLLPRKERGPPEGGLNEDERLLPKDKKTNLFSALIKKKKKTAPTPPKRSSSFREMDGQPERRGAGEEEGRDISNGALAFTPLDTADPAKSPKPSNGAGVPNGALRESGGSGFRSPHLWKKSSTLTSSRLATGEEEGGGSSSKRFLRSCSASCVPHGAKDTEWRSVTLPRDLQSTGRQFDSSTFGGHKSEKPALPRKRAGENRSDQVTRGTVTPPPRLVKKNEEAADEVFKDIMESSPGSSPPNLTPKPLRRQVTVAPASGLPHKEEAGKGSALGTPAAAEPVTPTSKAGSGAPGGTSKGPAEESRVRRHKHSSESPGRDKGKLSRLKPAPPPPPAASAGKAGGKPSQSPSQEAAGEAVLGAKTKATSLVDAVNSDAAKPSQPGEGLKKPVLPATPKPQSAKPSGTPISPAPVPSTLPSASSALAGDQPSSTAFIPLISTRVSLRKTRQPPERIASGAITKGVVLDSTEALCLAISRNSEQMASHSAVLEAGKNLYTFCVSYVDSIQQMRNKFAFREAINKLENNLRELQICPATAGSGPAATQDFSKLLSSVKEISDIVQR
Sequence of Ras and Rab interactor 1/Tyrosine-protein kinase ABL1 (Q13671 whole entry): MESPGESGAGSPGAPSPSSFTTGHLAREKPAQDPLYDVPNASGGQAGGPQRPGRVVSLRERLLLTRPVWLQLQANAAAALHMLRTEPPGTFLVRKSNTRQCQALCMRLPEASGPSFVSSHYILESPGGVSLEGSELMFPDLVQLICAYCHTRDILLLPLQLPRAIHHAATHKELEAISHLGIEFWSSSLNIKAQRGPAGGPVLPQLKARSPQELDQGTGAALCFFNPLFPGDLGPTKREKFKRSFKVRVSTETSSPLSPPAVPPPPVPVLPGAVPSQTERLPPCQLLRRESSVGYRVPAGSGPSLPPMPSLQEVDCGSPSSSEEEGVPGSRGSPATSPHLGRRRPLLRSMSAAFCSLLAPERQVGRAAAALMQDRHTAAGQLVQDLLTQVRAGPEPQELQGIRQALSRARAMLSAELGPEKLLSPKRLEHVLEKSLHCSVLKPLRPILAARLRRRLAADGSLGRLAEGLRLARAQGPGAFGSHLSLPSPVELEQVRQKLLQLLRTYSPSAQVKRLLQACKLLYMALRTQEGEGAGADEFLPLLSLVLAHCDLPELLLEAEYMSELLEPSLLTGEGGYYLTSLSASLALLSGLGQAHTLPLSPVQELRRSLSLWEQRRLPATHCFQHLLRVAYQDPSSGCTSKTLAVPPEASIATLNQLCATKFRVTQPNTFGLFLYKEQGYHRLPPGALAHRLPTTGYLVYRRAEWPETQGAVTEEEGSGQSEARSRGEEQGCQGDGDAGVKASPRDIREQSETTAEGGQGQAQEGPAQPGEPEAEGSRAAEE

[8] = molecular target: Glutathione-S-transferase (Schistosoma japonicum, UniProt Q26513); test: GST-antibody interaction or FRET quenching – biochemical, TR-FRET, artefact control for Vif-APOBEC3G degradation inhibitor project, dose response (AID 1117362); type: functional
Sequence of Glutathione-S-transferase (Q26513 whole entry): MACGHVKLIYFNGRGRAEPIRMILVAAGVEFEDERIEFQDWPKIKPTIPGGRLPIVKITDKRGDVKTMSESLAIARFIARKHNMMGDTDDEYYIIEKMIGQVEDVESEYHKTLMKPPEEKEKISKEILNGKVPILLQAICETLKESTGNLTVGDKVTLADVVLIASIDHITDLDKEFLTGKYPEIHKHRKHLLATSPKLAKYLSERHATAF

[9] = viability loss in THP-1 monocytes – THP-1 cells, cytotoxicity control for Vif-APOBEC3G degradation inhibitor project, dose response (AID 1117359); type: functional; settings: THP-1
Nonstructural protein 1 = Nonstructural protein 1 (Influenza A virus, UniProt Q194T2); type: functional, Influenza A virus (A/California/07/2009(H1N1))
[10] = molecular target: T1, E3 ubiquitin-protein ligase XIAP (Homo sapiens, UniProt P98170); test: small molecules displacing peptide from XIAP – biochemical, IAP family, fluorescence polarization (AID 1018); type: functional
T1 sequence (P98170 whole entry): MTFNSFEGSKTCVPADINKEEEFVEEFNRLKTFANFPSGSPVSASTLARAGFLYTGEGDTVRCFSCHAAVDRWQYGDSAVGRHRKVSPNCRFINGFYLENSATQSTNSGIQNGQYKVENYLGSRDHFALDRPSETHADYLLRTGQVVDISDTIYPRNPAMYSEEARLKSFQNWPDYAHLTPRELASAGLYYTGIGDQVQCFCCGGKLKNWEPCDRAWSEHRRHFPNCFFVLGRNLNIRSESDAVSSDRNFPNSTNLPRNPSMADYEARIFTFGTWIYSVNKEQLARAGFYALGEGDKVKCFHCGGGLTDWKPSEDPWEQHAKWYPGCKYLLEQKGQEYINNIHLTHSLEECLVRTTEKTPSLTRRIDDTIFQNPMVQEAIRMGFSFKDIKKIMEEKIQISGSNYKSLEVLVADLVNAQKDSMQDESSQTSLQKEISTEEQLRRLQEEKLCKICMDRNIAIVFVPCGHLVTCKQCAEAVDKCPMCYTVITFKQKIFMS

[11] = molecular target: T1, E3 ubiquitin-protein ligase XIAP; test: Counter Screen using XIAP-Bir3 for Chemical Antagonists of Bir1/2 domains of IAP-family anti-apoptotic proteins. [Related pubchem assays (depositor defined):AID1018, AID1449, AID1514, AID1638, AID1749, AID1750, AID488957, AID488963]
[12] = molecular target: T2, Sphingosine 1-phosphate receptor 2 (Homo sapiens, UniProt O95136); test: Dose Response Cell Based Assay for Antagonists of the S1P2 Receptor. [Related pubchem assays: 856, 736 ]; type: functional
T2 sequence (O95136 whole entry): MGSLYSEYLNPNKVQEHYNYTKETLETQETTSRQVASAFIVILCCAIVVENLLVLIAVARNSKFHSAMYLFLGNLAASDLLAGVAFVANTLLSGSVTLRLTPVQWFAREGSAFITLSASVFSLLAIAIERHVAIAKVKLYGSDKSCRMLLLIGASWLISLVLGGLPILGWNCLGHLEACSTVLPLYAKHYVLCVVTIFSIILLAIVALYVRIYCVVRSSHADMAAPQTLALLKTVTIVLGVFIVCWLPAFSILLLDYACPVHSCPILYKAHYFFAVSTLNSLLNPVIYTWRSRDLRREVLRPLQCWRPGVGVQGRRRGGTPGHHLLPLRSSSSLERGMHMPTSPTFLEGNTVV

[13] = HIV-1 Vif–A3G interaction blockers – biochemical, TR-FRET, GST-Vif 1-94, biotin-A3G peptide, dose response retest, primary screen (AID 1117319); type: functional;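 further: TR-FRET signal of purified GST-Vif binding a biotinylated A3G peptide; inhibitors lower the FRET signal by blocking Vif and A3G binding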
Protein Tat = Protein Tat (Human immunodeficiency virus type 1 group M subtype B (isolate HXB2)(HIV-1), UniProt P04608); type: functional;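 further: tat binding to TAR RNA read out by fluorescence polarization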
Sequence of Protein Tat (P04608 whole entry): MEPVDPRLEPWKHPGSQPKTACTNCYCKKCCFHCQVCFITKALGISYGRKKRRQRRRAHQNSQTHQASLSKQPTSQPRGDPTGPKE

[14] = molecular target: Induced myeloid leukemia cell differentiation protein Mcl-1 (Homo sapiens, UniProt Q07820); test: blockers of MCL1 binding to BIM peptide – biochemical, fluorescence polarization, BIM-BH3 peptide, 1536-well, dose response (AID 2217)
Bcl-2-like protein 1 = Bcl-2-like protein 1 (Homo sapiens, UniProt Q07817); test: blockers of BCLXL peptide binding – biochemical, fluorescence polarization, 1536-well, selectivity assay for MCL1 inhibitor project, dose response (AID 2218)
Sequence of Bcl-2-like protein 1 (Q07817 whole entry): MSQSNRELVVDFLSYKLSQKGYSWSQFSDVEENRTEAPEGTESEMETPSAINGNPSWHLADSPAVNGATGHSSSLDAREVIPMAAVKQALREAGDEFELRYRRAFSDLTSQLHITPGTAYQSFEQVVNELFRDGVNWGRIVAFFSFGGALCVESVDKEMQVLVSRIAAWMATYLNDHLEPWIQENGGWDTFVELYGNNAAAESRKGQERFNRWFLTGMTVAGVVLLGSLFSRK

[15] = M. tuberculosis H37Rv growth inhibitors, H37Rv strain (AID 1626); type: functional
Procathepsin L = Procathepsin L (Homo sapiens, UniProt P07711); test: CTSL1 protease inhibition – biochemical, QFRET, 1536-well, counter-screen for M1/M17 aminopeptidase inhibitor project, dose response (AID 2214)
Sequence of Procathepsin L (P07711 whole entry): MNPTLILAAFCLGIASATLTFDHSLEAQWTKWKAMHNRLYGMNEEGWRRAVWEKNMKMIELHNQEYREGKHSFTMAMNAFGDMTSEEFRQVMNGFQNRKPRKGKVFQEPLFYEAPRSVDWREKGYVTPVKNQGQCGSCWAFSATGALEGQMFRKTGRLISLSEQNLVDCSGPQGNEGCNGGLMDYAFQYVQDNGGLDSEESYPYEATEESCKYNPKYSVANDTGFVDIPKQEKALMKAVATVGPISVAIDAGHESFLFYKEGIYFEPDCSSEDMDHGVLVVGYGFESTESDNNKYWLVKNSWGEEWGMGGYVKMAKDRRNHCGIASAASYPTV

[16] = molecular target: T3, Probable nicotinate-nucleotide adenylyltransferase (Staphylococcus aureus (strain N315), UniProt P65502); type: functional, Staphylococcus aureus subsp. aureus N315; settings: read-out: IC50_Mean;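 on IC50 Mean: confirmatory dose-response retesting of NadD inhibitor hits first found in an ultra-high-throughput screen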
T3 sequence (P65502 whole entry): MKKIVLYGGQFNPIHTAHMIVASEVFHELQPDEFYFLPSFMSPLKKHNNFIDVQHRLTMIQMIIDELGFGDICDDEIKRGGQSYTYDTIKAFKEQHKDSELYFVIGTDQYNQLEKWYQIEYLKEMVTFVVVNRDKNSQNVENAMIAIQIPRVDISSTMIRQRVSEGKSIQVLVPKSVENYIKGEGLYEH

Aspartyl aminopeptidase = Aspartyl aminopeptidase (Plasmodium falciparum 3D7, UniProt Q8I2J3); test: Counterscreen for inhibitors of M1 and M17 aminopeptidases: QFRET-based biochemical high throughput dose response assay for inhibitors of the Plasmodium falciparum M18 Aspartyl Aminopeptidase (PFM18AAP). [Related PubChem assays: 1619 (Screening assay (M17LAP inhibitors).), 1445 (Screening assay (M1AAP inhibitors).)]
[17] = molecular target: T3, Probable nicotinate-nucleotide adenylyltransferase; type: functional, Staphylococcus aureus subsp. aureus N315
Leucine aminopeptidase = molecular target: T4, Leucine aminopeptidase (Plasmodium falciparum 3D7, UniProt Q8IL11); test: P. falciparum M17LAP inhibitors, primary screen, biochemical, fluorogenic H-Leu-NHMec substrate, 1536-well (AID 1619); type: functional
T4 sequence (Q8IL11 whole entry): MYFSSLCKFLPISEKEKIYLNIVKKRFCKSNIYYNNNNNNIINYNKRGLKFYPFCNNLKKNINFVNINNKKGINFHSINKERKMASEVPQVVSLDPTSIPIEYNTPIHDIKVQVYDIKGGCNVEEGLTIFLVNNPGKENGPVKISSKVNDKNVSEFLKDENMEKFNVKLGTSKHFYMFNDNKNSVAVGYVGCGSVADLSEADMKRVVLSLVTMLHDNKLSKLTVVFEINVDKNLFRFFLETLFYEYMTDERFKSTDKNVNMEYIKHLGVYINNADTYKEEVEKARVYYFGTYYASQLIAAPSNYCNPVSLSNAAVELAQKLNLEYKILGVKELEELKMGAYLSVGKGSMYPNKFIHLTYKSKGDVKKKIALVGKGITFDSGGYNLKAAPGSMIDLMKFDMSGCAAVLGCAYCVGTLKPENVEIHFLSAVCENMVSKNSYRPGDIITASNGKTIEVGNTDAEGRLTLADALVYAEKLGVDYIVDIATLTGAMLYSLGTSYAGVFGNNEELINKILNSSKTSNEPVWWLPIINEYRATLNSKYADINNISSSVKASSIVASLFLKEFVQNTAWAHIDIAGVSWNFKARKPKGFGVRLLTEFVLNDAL

Estrogen receptor beta = Estrogen receptor beta (Homo sapiens, UniProt Q92731);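 further: recombinant ER-beta bound to coactivator SRC1 peptide in presence of estradiol agonist; inhibitors block coactivator peptide binding and lower the FRET signal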
Prothrombin = Prothrombin (Homo sapiens, UniProt P00734); test: Thrombin 1536 HTS Dose Response Confirmation. [Related pubchem assays: 1046 (Thrombin 1536 HTS; hits were confirmed in this assay)]; type: functional
[18] = molecular target: T2, Sphingosine 1-phosphate receptor 2; test: Dose Response Cell Based Assay for Agonists of the S1P2 Receptor of Purchased Analogues. [Related pubchem assays: 729, 843, 854, 736 ]; type: functional
Genome polyprotein = Genome polyprotein (Hepatitis C virus, UniProt Q2Q167); test: disruption of hepatitis C core self-association – biochemical, TR-FRET, dose response (AID 2159); parameters: species or system Hepacivirus hominis;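 further: blocks dimerization of HCV core protein measured by TR-FRET between tagged core106 pairs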
NADPH oxidase 1 = NADPH oxidase 1 (Homo sapiens, UniProt Q9Y5S8); test: Late-stage luminescence-based cell-based dose response assay to identify inhibitors of NADPH oxidase 1 (NOX1): Synthesized analogs 2.; type: functional
Sequence of NADPH oxidase 1 (Q9Y5S8 whole entry): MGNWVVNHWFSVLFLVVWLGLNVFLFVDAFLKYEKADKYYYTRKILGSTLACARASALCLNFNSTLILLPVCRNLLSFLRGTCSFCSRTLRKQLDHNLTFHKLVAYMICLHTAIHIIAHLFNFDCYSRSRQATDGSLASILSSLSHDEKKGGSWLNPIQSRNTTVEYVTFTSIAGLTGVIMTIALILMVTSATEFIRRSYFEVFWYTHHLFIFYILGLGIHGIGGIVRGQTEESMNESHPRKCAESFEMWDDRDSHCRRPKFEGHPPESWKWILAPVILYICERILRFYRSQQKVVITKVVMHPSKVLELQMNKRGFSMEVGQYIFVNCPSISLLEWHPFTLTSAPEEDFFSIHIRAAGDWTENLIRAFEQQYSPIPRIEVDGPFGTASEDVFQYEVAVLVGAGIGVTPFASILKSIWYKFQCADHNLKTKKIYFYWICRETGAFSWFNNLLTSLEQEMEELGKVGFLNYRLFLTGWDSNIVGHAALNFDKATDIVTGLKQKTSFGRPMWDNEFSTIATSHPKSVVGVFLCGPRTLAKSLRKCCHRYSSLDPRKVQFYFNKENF

[19] = Dd2 malaria parasite growth inhibition potency – SYBR Green, dry powder samples, dose response (AID 1159566); type: functional, cell-based;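 further: potency for growth inhibition with lower SYBR green DNA signal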
[20] = toxicity to human HepG2 hepatoma cells – cell-based, plate reader, dry powder samples, cytotoxicity control, dose response (AID 1159569); type: functional;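 further: inhibitor potency with signal falling toward the positive control level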
[21] = P. falciparum Dd2 growth inhibitors, dose response, SYBR Green, cherry-picked samples (AID 1159567); type: functional, cell-based
[22] = growth inhibition of yeast DHODH-expressing 3D7 parasites – SYBR Green, dry powder samples, dose response (AID 1159570); type: functional, cell-based;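 further: parasite growth measured after 72 hours of compound exposure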
[23] = growth inhibition of PfATP4-mutant resistant parasites – NITD609-resistant line, SYBR Green, dry powder, dose response (AID 1159571); type: functional, cell-based;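 further: parasites synchronized at ring stage by sorbitol before testing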
[24] = Plasmodium falciparum Dd2 Sybr green parasite growth Measured in Cell-Based and Microorganism Combination System Using Plate Reader - 2153-01_Inhibitor_Dose_DryPowder_Activity_Set3.; type: functional

O=C1OC2(c3ccccc31)c1cc(I)c(O)c(I)c1Oc1c2cc(I)c(O)c1I [ERYTHROSINE]
IC50 [1]: 2.93 µM (active) | IC50 (Large T antigen): 13 µM (active) | IC50 [2]: > 40 µM (inactive)

Fc1ccc2nc3[nH]c4ccccc4c3nc2c1
AC50 (Cytochrome P450 2C19): 20 µM (inconclusive) | IC50 [3]: 18.4 µM (not active) | AC50 (Cytochrome P450 2C9): 10 µM (inconclusive)

CCOC(=O)c1oc2ccccc2c1NC(=O)c1cc(OC)cc(OC)c1
EC50 [4]: > 50 µM (not active)

CN(C)c1ccc(C#Cc2ccc3cc(CCO)oc(=O)c3c2)cc1
IC50 [5]: > 39.8 µM (not active) | IC50 [6]: > 39.8 µM (not active)

CCc1cccc(NC(=O)CCCCCC2NC(=O)NC2C)c1 (configuration not stated)
IC50 [7]: 0.00897 µM (active) | IC50 [8]: 9.93 µM (active) | CC50 [9]: > 40 µM (active) | IC50 (Nonstructural protein 1): 0.825 µM (active)

CCCNC(=O)c1cc(SC)ccc1Cl
IC50 [10]: > 100 µM (not active) | IC50 [11]: > 100 µM (inactive)

O=C(O)c1sc2cc(C(F)(F)F)cnc2c1-c1cccnc1
IC50 [12]: > 30 µM (not active)

COc1ccc(-n2c(Cc3cccn3C)nnc2SCC(N)=O)cc1
IC50 [13]: > 100 µM (active) | IC50 (Protein Tat): > 100 µM (active)

Clc1cccc(C2Nc3cccc4cccc(c34)N2)c1
IC50 [14]: 28.6 µM (not active) | IC50 (Bcl-2-like protein 1): > 109 µM (not active)

CCOc1ccc(NC(=O)N(C2CCCCC2)C2CCN(C(C)=O)CC2)cc1
IC50 [15]: > 100 µM (active)

Cc1ccc(Nc2nnc(SC/C(O)=C(\C#N)c3nc4ccccc4[nH]3)s2)c(C)c1
IC50 (Procathepsin L): > 59.6 µM (not active) | IC50 [16]: 21.4 µM (active) | IC50 (Aspartyl aminopeptidase): > 73.5 µM (not active) | IC50 [17]: 7.79 µM (active) | IC50 (Leucine aminopeptidase): 6.03 µM (active)

NC(=Nc1nc2ccccc2o1)NC(=O)c1ccccc1NC(=O)c1ccccc1
IC50 (Estrogen receptor beta): > 50 µM (not active) | IC50 (Prothrombin): > 50 µM (inconclusive)

Cc1ccc(C(=O)OCC(=O)c2cc(C)n(Cc3ccccc3)c2C)o1
EC50 [18]: > 30 µM (not active)

CCOC(=O)c1sc(NC(=S)NC(=O)C2CC2)cc1C
IC50 (Genome polyprotein): > 49.8 µM (not active)

CN1c2ccccc2Sc2cc(NC(=O)CCl)ccc21
IC50 (NADPH oxidase 1): 0.653 µM (active)

N#C[C@@H]1[C@H](c2ccc(C3=CCCC3)cc2)[C@@H](CO)N1C(=O)NC1CCCC1
AC50 [19]: 0.395 µM (active) | AC50 [20]: 82 µM (active) | AC50 [21]: 0.615 µM (active) | AC50 [22]: 15.8 µM (active) | AC50 [23]: 0.694 µM (active) | AC50 [24]: 0.647 µM (active)
